Experimental data published in patent publication US20110160311A1, “Sweetness Enhancers, Compositions Thereof, and Methods for Use” (The Coca-Cola Company, priority 2009, published 2011).

Legend:
[1] = Sweetness detection threshold level in water, multi-sip and swallow taste method; type: in vivo, human; settings: in water at room temperature, single assessor
From the text: As used herein, the terms “sweetness threshold,” “sweetness recognition threshold,” and “sweetness detection threshold” are understood to mean the level at which the lowest known concentration of a certain sweet compound that is perceivable by the human sense of taste and it can vary from person to person. For example, a typical sweetness threshold level for sucrose in water can be 0.5%.
Further for example, the at least one sweetness enhancer to be used can be assayed in water at least 25% lower and at least 25% higher than the sucrose detection level of 0.5% in water to determine the sweetness threshold level.
(§1) A first sip (approximately 2.2 mL) of a ca. 20 mL control composition was taken and swallowed. After waiting for a time ranging from 15 to 25 seconds, a second sip of control composition was taken and swallowed, and the sweetness and/or taste of the control composition was noted. After waiting for a time ranging from 15 to 25 seconds, these steps were repeated with a comparative composition. The sweetness and taste differences between the control and the comparative composition were noted. For each tested composition, this cycle was repeated once to confirm the initial findings. All samples were measured at average 23.0° C.±1° C. between samples for consistent comparison and to minimize any effects of temperature on the perceived taste or sweetness of the composition.
(§2) To perform the taste test, three sweetener samples were paired with one additive and taste tested as described above. A three minute break was taken before tasting another three sweetener samples paired with a different additive. Up to 10 additives per day were used to minimize a fatigue factor. Before tasting, at least 1.5 hours elapsed after ingestion of any food, drink or nicotine. The tests were repeated on a different date to validate the initial findings.
The sweetness detection threshold levels for 21 entities were measured by a single assessor in water at room temperature according to the multi-sip and swallow taste method described herein.

[2] = Sweetness enhancement of glucose, fructose or sucrose at 6% SE in water by additive at its threshold level; type: in vivo, human; settings: room temperature, additive at its Table 1 threshold level
Description: as §1, §2
The twenty-one entities above were combined in a concentration at the sweetness detection threshold level listed in Table 1, with one of Glucose (GLU), Fructose (FRU), and Sucrose (SUG), each at a fixed SE (Sucrose Equivalents) level of 6%. The sweetness of the compositions was measured as described above at room temperature.

[3] = Rubusoside sweetness detection threshold estimation in water, sip-and-spit, 5 subjects; type: in vivo, human; settings: 50 ppm solution in purified water, all 5 subjects
Description: Preliminarily, a 1,000 ppm steviol glycoside solution was prepared by dissolution of 20 mg steviol glycoside in 20 mL purified water. An aliquot (10 mL) of this solution was diluted to 20 mL with water to obtain a 500 ppm solution. Additional 1:1 serial dilutions were used to obtain 250, 125, 62.5, 31.2 and 15.6 ppm solutions. Those solutions were then tasted in ascending order of concentration by one experienced subject by using the sip-and-spit protocol disclosed herein. The subject's estimated sweetness detection threshold was determined to be at the lowest concentration at which sweetness was definitely observed.
Thereafter, a 200 ppm solution of rubusoside was prepared by dissolution of 20 mg rubusoside in 200 mL purified water. An aliquot (50 mL) of this solution then was diluted to 100 mL with water to obtain a 100 ppm solution. Additional 1:1 serial dilution steps were used to prepare 50 and 25 ppm solutions. These solutions then were tasted in ascending order of concentration by 5 experienced subjects by the sip-and-spit protocol.

[4] = Rubusoside and 6% sucrose sweetness enhancement test; type: in vivo, human; settings: 50 mg rubusoside in 1 L of 6% sucrose; scale of 6-10 relative to 6-10% sucrose references; 6% sucrose reference rated 6.1
Description: Reference samples were prepared at 6, 7, 8, 9 and 10% sucrose (w/v). The test sample was prepared by addition of 50 mg of rubusoside to 1 L of 6% sucrose. The test sample was mixed with five sucrose control samples of various concentrations in the 6-10% sucrose range. Each of the six samples was then individually rated for sweetness intensity on a scale of 6-10 relative to the 6-10% sucrose references.
The Sweetness Intensity Rating ranged from 6 to 10, for each subject.

[5] = Sweetness recognition threshold in lemon-lime carbonated beverage at 4° C.; type: in vivo, human; settings: lemon-lime carbonated beverage (citric buffer) at 4° C., average of six subjects
Description: Preliminarily, multi-levels of steviol glycoside solution in lemon-lime beverage at 4° C. were prepared by mixing the calculated formulations to obtain 450, 350, 250 and 150 ppm of steviol glycoside solutions. Those solutions were then tasted by six experienced subjects by using the sip-and-spit protocol disclosed herein. The sweetness recognition threshold for rubusoside was determined to be averaged 150 ppm. For sweetness enhancement test of rubusoside in lemon-lime beverage, it was decided to use a 10 percent less of sweetness recognition threshold or 135 ppm (150−10%=135).

[6] = Descriptive sensory analysis of lemon-lime carbonated beverages at 4° C.; type: in vivo, human; settings: 135 ppm rubusoside added to 8% HFSS lemon-lime beverage
Description: Three test products were prepare: a control beverage comprising 10.52% High Fructose Starch Syrup (HFSS), a lemon-lime prototype comprising 8% HFSS and 135 ppm rubusoside, and a standard lemon-lime beverage comprising 8% HFSS.
As part of study design, a full sensorial profile was determined using a Complete Block Design (CBD). All products were randomized and balanced. Each assessor evaluated all products sequentially. Each product was evaluated three times by each assessor. Eight minute time breaks between tasting samples. Unsalted cracker, 0.75% saline solution and mineral grade water was used as a mouth rinse and refresher before each sample. Each assessor was served 75 ml of chilled beverage (4° C.+/−1° C.). Table 5 provides the categories and the descriptions of the various attributes identified in Table 4.

[7] = Sweetness enhancement of glucose, fructose or sucrose at 6% SE in water by additive at its threshold level; type: in vivo, human; settings: rubusoside at 50 ppm, 6% sucrose in water
[8] = in water; cited from earlier work

SMILES	Sweetness Detection Threshold Level [1]	Sensory result versus FRU 55,000 ppm ([2]; fructose at 6% SE in water)	Sensory result versus GLU 99,000 ppm ([2]; glucose at 6% SE in water)	Sensory result versus SUC 60,000 ppm ([2]; sucrose at 6% SE in water)	Taste of the solution [3]	Average sweetness intensity rating [4]	Sweetness recognition threshold [5]	Times as sweet as the prototype without rubusoside [6]	Sweetness equivalence ([6]; interpolation of the data)	Enhancement of the 6% sucrose [7]	Typical sweetness threshold level [8]
C=C1C[C@@]23CC[C@H]4[C@@](C)(CCC[C@@]4(C)C(=O)O[C@@H]4O[C@H](CO)[C@@H](O)[C@H](O)[C@H]4O)[C@@H]2CC[C@]1(O[C@@H]1O[C@H](CO)[C@@H](O)[C@H](O)[C@H]1O)C3 [Rubusoside]	50 ppm	N(S+) (No difference but slightly more sweet (0.5-0.75%))	N(S+) (No difference but slightly more sweet (0.5-0.75%))	++S (Much more sweetness intensity (~2.0% SE))	absence of taste	7.9	150 ppm	1.15 times	9.2 % HFSS	about 2 % SE	–
OC[C@H]1O[C@@](CO)(O[C@H]2O[C@H](CO)[C@@H](O)[C@H](O)[C@H]2O)[C@@H](O)[C@@H]1O [sucrose]	–	–	–	–	–	–	–	–	–	–	0.5%
